How the values were obtained:
CXCL10 mRNA = experiment: qPCR of interferon-stimulated genes in B16F10 tumors; type: in vivo, mice; details: tumors at day 16; cGAMP-MPs single injection, cGAMP-S three injections
Experimental: (§1) Mice bearing B16F10 tumors were treated with the following 4 experimental groups (n=8): untreated, 1×EPs, 3×cGAMP-S, and 1×cGAMP-S plus cGAMP-MPs, respectively (FIG. 4A). Tumors were collected at day 16 post tumor inoculation and cut into 50-100 mg small pieces in a 1.5 mL microcentrifuge tube. The tumors were lysed in radioimmunoprecipitation assay (RIPA) buffer (Sigma-Aldrich), homogenized, and centrifuged at 20130 rcf for 10 min. The protein content in the supernatant was quantified using a bicinchoninic acid protein assay kit (Thermo Fisher Scientific, MA, USA). Equal amounts of proteins (20 μg) were separated on a 4 to 15% gradient SDS-polyacrylamide gel (Bio-Rad, Hercules, CA) and electro-transferred to nitrocellulose membrane. The membranes were then blocked with 5% milk in tris-buffered saline supplemented with 0.05% Tween 20 and further incubated with GAPDH monoclonal antibody (Invitrogen, CA, cat. no. MA5-27912), phospho-TBK1/NAK (Ser172) (D52C2) Rabbit mAb (Cell Signaling Technology, cat. no. 5483S), or phospho-IRF-3 (S396) Rabbit mAb (Cell Signaling Technology, cat. no. 4947S) at 4° C. overnight. […]
(§2) For q-PCR experiments, total RNAs were extracted from tumors by RNeasy Kit (Qiagen, Inc.) according to manufacturer's protocol. […] Samples were analyzed in triplicates.

IRF7 mRNA = experiment: as above; type: in vivo, mice; details: tumors at day 16; cGAMP-MPs single injection, cGAMP-S three injections
Experimental: as §1, §2

B16F10 tumor recurrence = experiment: Treatment of surgically removed B16F10 tumor and re-challenge; type: in vivo, mice
Excerpt: 2×10^5 B16F10 cells were subcutaneously injected to the right rear flank of C57BL/6 female mice. Six days after tumor inoculation, B16F10 tumor-bearing mice were randomly divided into 4 experimental groups (n=8 for each group): untreated, 1×cGAMP-S plus EPs, 3×cGAMP-S, and 1×cGAMP-S plus cGAMP-MPs, respectively. ˜99% of tumor volume was surgically removed, leaving ˜1% residual tumor to mimic residual microtumors. Upon the removal of tumors, cGAMP-MPs (10m of cGAMP-S, 5 PLGA-1 microdevices containing 10 μg of cGAMP, and 5 PLGA-2 microdevices containing 10 μg of cGAMP) or 1×cGAMP-S plus EPs (10m of cGAMP-S, 5 each of empty PLGA-1 and PLGA-2 microdevices) in 50 μL MC solution were directly applied to the surgical bed through a micropipette. For 3×cGAMP-S treated group, 10 μg of cGAMP-S was applied to the surgical bed after surgery followed by intratumoral injections of 10 μg of cGAMP at days 4 and 8 post-surgery (FIG. 6A). The wound was closed by an autoclip wound clip system. Tumor size was measured with a digital caliper every other day starting at day 7 post tumor inoculation. For the re-challenge experiment, 2×10^5 B16F10 cells were subcutaneously injected to the left rear flank of treated mice with complete responses. Tumor size was measured every other day with a digital caliper.

[1] = tested on: KPC pancreatic cancer cells; experiment: Treatment of orthotopic pancreatic tumor model; type: in vivo, mice; details: 25 days; cGAMP-MPs three doses at days 0, 4, 8; cGAMP-S single high dose (30 μg) with EPs
Experimental: A small incision was made to exteriorize the spleen and pancreas of C57BL/6 female mice. 5×10^5 KPC cells in 50 μL of PBS and Matrigel (1:1 mixture by volume) were injected into the tail of the pancreas. cGAMP-MPs (10 μg of cGAMP-S, 5 PLGA-1 microdevices containing 10 μg of cGAMP and 5 PLGA-2 microdevices containing 10 μg of cGAMP) or 1×cGAMP-S plus EPs (30m of cGAMP-S, 5 each of empty PLGA-1 and PLGA-2 microdevices) in 50 μL MC solution were also injected into the tail of the pancreas. The wound was then closed by an autoclip wound clip system. Mice were euthanized 25 days after tumor inoculation. The tumors were isolated and weighted by a balance. Metastasis to lungs was evaluated by H&E staining of lung sections.

[2] = tested on: ecto-nucleotide pyrophosphatase/phosphodiesterase 1 (ENPP1); details: versus naturally produced 2′3′-cGAMP; Kato K. et al.; cited from earlier work

Nc1nc2c(ncn2[C@@H]2O[C@@H]3COP(=O)(O)O[C@H]4[C@@H](O)[C@H](n5cnc6c(N)ncnc65)O[C@@H]4COP(=O)(O)O[C@H]3[C@H]2O)c(=O)[nH]1 [cGAMP-S, 3′3′-cGAMP]
CXCL10 mRNA level, fold over untreated (CXCL10 mRNA): 7.2 fold | IRF7 mRNA level, fold over untreated (IRF7 mRNA): 66.5 fold | tumor recurrence rate (B16F10 tumor recurrence; cGAMP-MPs single application, cGAMP-S three doses, untreated 100%): 25% | tumor recurrence rate (B16F10 tumor recurrence; single dose of cGAMP-S plus EPs): 87.5% | survival after re-challenge (B16F10 tumor recurrence; tumor-free mice re-challenged with B16F10 cells): prolonged survival time | tumor growth after re-challenge versus naïve mice (B16F10 tumor recurrence; tumor-free mice re-challenged with B16F10 cells at day 60): significantly slower | metastasis to lungs [1]: did not show benefits | primary tumor growth in the pancreas [1]: did not show benefits | stability against ENPP1 [2]: enhanced stability
